Laboratory results from patent US12208143B2, “Compositions and methods for transport across the blood brain barrier” (OPHIDION INC., priority 2011, dated 2025).
“Also recorded” adds a separate entry of the source. Where two headings read alike, the source gives them in different places.

What was measured:
primary cortical neurons = format: cell-based, mouse
lynx1 mRNA [1] = experiment: lynx1 knock-down by lynx1 siRNA species in cultured cortical neurons (TaqMan qPCR); format: cell-based, mouse; settings: siRNA transfected by Accell method, lynx1 mRNA relative to mock, FIG. 6
lynx1 mRNA [2] = experiment: siRNA uptake of peptide-lynx1 siRNA complexes into primary neuronal cultures (lynx1 mRNA knock-down, qPCR); format: cell-based; settings: 25 uM peptide + 2.5 uM lynx1 siRNA (siRNA1), poly-D arginine linker, 24 hours, primary cortical mouse neurons, FIG. 8
lynx1 mRNA [3] = experiment: Knock-down of lynx1 mRNA after delivery of anti-lynx1 siRNA into cultured cortical neurons via peptide variant-siRNA complexes (qPCR); format: cell-based, mouse

Sequence: EVMEQSAGIMYRKS [lynx2-loop2]
- binding of biotinylated peptide to neurons in culture (primary cortical neurons): did not reliably bind to neurons

Sequence: GCACUGAUUUGAUAGAAUU (siRNA; purchased Accell siRNA, chemistry not given here) [siRNA1, SMART pool siRNA A-062811-13 LYNX1, Thermo Scientific/Dharmacon]
- reduction of lynx1 expression (lynx1 mRNA [1]): more than 90%
- reduction in lynx1 mRNA compared to no siRNA (Mock) (lynx1 mRNA [2]): no significant reduction in lynx1 mRNA levels
- knock-down of lynx1 mRNA relative to the lynx1-loop2 peptide-siRNA complex (lynx1 mRNA [3]; 5 μM peptide + 0.5 μM anti-lynx1 siRNA, 24 hours, cultured cortical neurons, lynx1-loop2 set to 100%, siRNA alone set at 0%, FIG. 10): did not result in knock-down of lynx1 mRNA

Sequence: MTTRTYATPYRMKVRKS [Mutant 2]
- knock-down of lynx1 mRNA relative to the lynx1-loop2 peptide-siRNA complex (lynx1 mRNA [3]): significantly reduces lynx1-loop2 peptide ability to transport siRNA into neurons; also recorded: not as effective for decreasing lynx1 expression

Sequence: MTTRTYFTPYAMADRKS [Mutant 3]
- knock-down of lynx1 mRNA relative to the lynx1-loop2 peptide-siRNA complex (lynx1 mRNA [3]): abolish lynx1-loop2 peptide function; also recorded: not as effective for decreasing lynx1 expression

Sequence: MTWCDYFTPSRGKVRKS [Mutant 1]
- decrease of lynx1 mRNA compared to RVG29 and RVG19 complexes (lynx1 mRNA [3]): more effective at decreasing levels of lynx1 mRNA compared to RVG29 and RVG19; also recorded: decrease lynx1 mRNA in cultured cortical neurons more effectively than both RVG29 and RVG19
- knock-down of lynx1 mRNA relative to the lynx1-loop2 peptide-siRNA complex (lynx1 mRNA [3]): as capable of translocating siRNA into neurons as is lynx1-loop2; also recorded: enhanced the knock-down compared to SEQ ID NO:2 peptide; also recorded: capable of decreasing lynx1 expression in cultured cortical neurons as well as a peptide having the sequence of SEQ ID NO:2
